Our source for the Ki values is patent US8071600B2, “Derivatives of 4-piperazin-1-yl-4-benzo[B]thiophene suitable for the treatment of CNS disorders” (Otsuka Pharmaceutical Co., Ltd., priority 2005, dated 2011).

Where a name gives a salt, the structure may show the parent alone.

The target in test [1] is T1, Serotonin 5-HT2A receptor (Rattus norvegicus, UniProt P14842).
T1 construct: from tissue; host or cells: Wistar rat brain, frontal cortex membranes
The test is described as follows: Serotonin 5-HT2A receptor binding assay ([3H]-Ketanserin). The following applies: Serotonin 5-HT2A receptor binding test, rat frontal cortex membrane, Ki calculated from IC50 by Cheng-Prussoff formula. Here is the method: 2) Serotonin 5-HT2A Receptor Binding Assay
The assay was performed according to the method by Leysen J E et al. (Leysen J E, Niemegeers C J E, Van Nueten J M and Laduron P M. [3H] Ketanserin (R 41 468), a selective 3H-ligand for serotonin 2 receptor binding sites. Mol. Pharmacol., 1982, 21: 301-314).
Wistar male rats were decapitated, the brain was retrieved immediately and frontal cortex was taken out. It was homogenized in 0.25 M sucrose of a volume 10 times of the weight of the tissue using a Teflon glass homogenizer, and centrifuged at 4° C., 1,000×g for 10 minutes. The obtained supernatant was transferred to another centrifuge tube and suspended in 0.25 M sucrose of a volume 5 times of the weight of the tissue and the precipitate was centrifuged in the above-described condition. The obtained supernatant was combined with the supernatant obtained above and adjusted to a volume 40 times of the weight of the tissue with 50 mM Tris-hydrochloric acid buffer (pH 7.4), and centrifuged at 4° C., 35,000×g for 10 minutes. The obtained precipitate was suspended again in the above-described buffer of a volume 40 times of the weight of the tissue and centrifuged in the above-described condition. The obtained precipitate was suspended in the above-described buffer of a volume 20 times of the weight of the tissue and preserved by freezing at −85° C. till it was used for binding assay as a membrane specimen.
The binding assay was performed using 40 μl of the membrane specimen, 20 μl of [^3H]-Ketanserin (final concentration 1 to 3 nM), 20 μl of a test drug and 50 mM Tris-hydrochloric acid buffer (pH 7.4) so that the total amount was 200 μl (final dimethylsulfoxide concentration 1%). The reaction was performed at 37° C. for 20 minutes and terminated by conducting suction filtration with a cell harvester on a glass fiber filter plate.
The filter plate made of glass fiber was washed with 50 mM Tris-hydrochloric acid buffer (pH 7.4), and after dried, a microplate liquid scintillation cocktail was added and the radioactivity was measured with a microplate scintillation counter. Radioactivity in the presence of 10 μM spiperone was assumed as nonspecific binding.
(§1) IC50 value was calculated from concentration-dependent reaction using a non-linear analysis program. Ki value was calculated from IC50 value using Cheng-Prussoff formula.

A further test has as its target T2, Dopamine D2 receptor (Rattus norvegicus, UniProt P61169).
T2 construct: from tissue; host or cells: Wistar rat brain, corpus striatum membranes
Briefly: Dopamine D2 receptor binding assay ([3H]-raclopride). The following applies: Dopamine D2 receptor binding test, rat corpus striatum membrane, Ki calculated from IC50 by Cheng-Prussoff formula. The method, then: 1) Dopamine D2 Receptor Binding Assay
The assay was performed according to the method by Kohler et al. (Kohler C, Hall H, Ogren S O and Gawell L, Specific in vitro and in vivo binding of 3H-raclopride. A potent substituted benzamide drug with high affinity for dopamine D-2 receptors in the rat brain. Biochem. Pharmacol., 1985; 34: 2251-2259).
Wistar male rats were decapitated, the brain was retrieved immediately and corpus striatum was taken out. It was homogenized in 50 mM tris(hydroxymethyl)aminomethane (Tris)-hydrochloric acid buffer (pH 7.4) of a volume 50 times of the weight of the tissue using a homogenizer with a high-speed rotating blade, and centrifuged at 4° C., 48,000×g for 10 minutes. The obtained precipitate was suspended again in the above-described buffer of a volume 50 times of the weight of the tissue and after incubated at 37° C. for 10 minutes, centrifuged in the above-described condition. The obtained precipitate was suspended in 50 mM (Tris)-hydrochloric acid buffer (containing 120 mM NaCl, 5 mM KCl, 2 mM CaCl2, 1 mM MgCl2, pH 7.4) of a volume 25 times of the weight of the tissue and preserved by freezing at −85° C. till it was used for binding assay as a membrane specimen.
The binding assay was performed using 40 μl of the membrane specimen, 20 μl of [^3H]-raclopride (final concentration 1 to 2 nM), 20 μl of a test drug and 50 mM Tris-hydrochloric acid buffer (containing 120 mM NaCl, 5 mM KCl, 2 mM CaCl2, 1 mM MgCl2, pH 7.4) so that the total amount was 200 μl (final dimethylsulfoxide concentration 1%). The reaction was performed at room temperature for 1 hour and terminated by conducting suction filtration with a cell harvester on a glass fiber filter plate. The filter plate made of glass fiber was washed with 50 mM Tris-hydrochloric acid buffer (pH 7.4), and after dried, a microplate liquid scintillation cocktail was added and the radioactivity was measured with a microplate scintillation counter. Radioactivity in the presence of 10 μM (+)-butaclamol hydrochloride was assumed as nonspecific binding.
as §1

T1 sequence (P14842 whole entry): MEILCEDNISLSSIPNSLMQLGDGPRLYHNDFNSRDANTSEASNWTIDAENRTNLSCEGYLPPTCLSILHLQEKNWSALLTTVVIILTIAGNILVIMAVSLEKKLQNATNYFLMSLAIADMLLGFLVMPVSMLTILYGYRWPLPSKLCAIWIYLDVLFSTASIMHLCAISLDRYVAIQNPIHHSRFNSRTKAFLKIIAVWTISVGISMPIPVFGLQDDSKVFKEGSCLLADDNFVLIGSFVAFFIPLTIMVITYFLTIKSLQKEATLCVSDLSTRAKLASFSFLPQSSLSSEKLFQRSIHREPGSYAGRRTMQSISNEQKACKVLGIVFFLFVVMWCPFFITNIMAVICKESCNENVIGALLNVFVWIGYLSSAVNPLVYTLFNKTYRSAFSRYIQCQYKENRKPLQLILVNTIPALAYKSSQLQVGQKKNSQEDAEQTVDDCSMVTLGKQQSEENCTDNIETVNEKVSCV
T2 sequence (P61169 whole entry): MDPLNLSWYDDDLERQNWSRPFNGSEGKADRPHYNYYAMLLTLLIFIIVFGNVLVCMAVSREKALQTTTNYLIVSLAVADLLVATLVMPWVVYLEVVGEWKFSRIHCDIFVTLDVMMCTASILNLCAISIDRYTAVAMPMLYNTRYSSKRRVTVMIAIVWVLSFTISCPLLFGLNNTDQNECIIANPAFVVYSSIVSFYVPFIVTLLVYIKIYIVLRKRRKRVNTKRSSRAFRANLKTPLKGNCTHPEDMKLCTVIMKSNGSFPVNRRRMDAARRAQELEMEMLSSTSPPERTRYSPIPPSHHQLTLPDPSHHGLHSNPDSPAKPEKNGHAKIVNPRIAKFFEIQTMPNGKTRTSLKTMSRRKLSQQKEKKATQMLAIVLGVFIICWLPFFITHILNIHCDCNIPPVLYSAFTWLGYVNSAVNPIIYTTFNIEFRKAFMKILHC

A word on the Ki: it is the dissociation constant of the complex between target and ligand, obtained from inhibition or displacement. Turning to `O=C1Nc2cc(OCCCCN3CCN(c4cccc5sccc45)CC3)ccc2CO1` [Example 133], the results for the Ki (in test [1]; at Dopamine D2 receptor) were 4.7 nM and 0.3 nM, respectively.
As to `c1cc(N2CCN(CCCCOc3ccncc3)CC2)c2ccsc2c1` [Example 80], the values for the Ki (in test [1]; on Dopamine D2 receptor) were 3.3 nM and 1.6 nM, respectively.
For `CN1CC(=O)N(C)c2ccc(OCCCN3CCN(c4cccc5sccc45)CC3)cc2C1=O` [Example 1034], the Ki is 3.1 nM in test [1] and 2.1 nM on Dopamine D2 receptor.
As to `O=C1Cc2ccc(OCCCCN3CCN(c4cccc5sccc45)CC3)cc2N1` [Example 127], the Ki in test [1] was 2.4 nM; on Dopamine D2 receptor, 0.4 nM.
Turning to `CNC(=O)c1ccc(OC)c(OCCCN2CCN(c3cccc4sccc34)CC2)c1` [Example 281], the Ki in test [1] is 0.6 nM; at Dopamine D2 receptor it was 0.3 nM.
In the case of `Cc1ccc(OCCCN2CCN(c3cccc4sccc34)CC2)cn1` [Example 40], the Ki in test [1] is 0.6 nM; on Dopamine D2 receptor, 3.1 nM.
Turning to `O=c1[nH]c2ccc(OCCCN3CCN(c4cccc5sccc45)CC3)cc2[nH]1` [Example 112], the Ki in test [1] was 0.7 nM; at Dopamine D2 receptor, 1 nM.
As to `Cn1cnc2ccc(OCCCN3CCN(c4cccc5sccc45)CC3)cc2c1=O` [Example 95], the Ki is 2.3 nM in test [1] and 1.9 nM at Dopamine D2 receptor.
As to `NC(=O)c1csc(OCCCN2CCN(c3cccc4sccc34)CC2)n1` [Example 7, 2-[3-(4-benzo[b]thiophen-4-yl-piperazin-1-yl)propoxy]thiazole-4-carboxamide], the inhibition constant (Ki) in test [1] is 2.9 nM; at Dopamine D2 receptor, 0.8 nM.
`CCNC(=O)c1csc(OCCCN2CCN(c3cccc4sccc34)CC2)n1` [Example 73]: the figures for the Ki (in test [1]; at Dopamine D2 receptor) were 5.6 nM and 1.3 nM, respectively.
The corresponding values for `CCNC(=O)c1cc(OCCCN2CCN(c3cccc4sccc34)CC2)n(C)n1` [Example 62] are 4.7 nM and 1.6 nM.
The like results for `COc1cc(N2CCOC2=O)cc(C)c1OCCCN1CCN(c2cccc3sccc23)CC1` [Example 358] were, in that order, 1.1 nM and 0.2 nM.
`CN1CCN(Cc2ccc(OCCCN3CCN(c4cccc5sccc45)CC3)cc2)CC1` [Example 314]: the inhibition constant Ki (in test [1]; on Dopamine D2 receptor) was 0.8 nM each time.
For the compound `COC(=O)N(C)c1cc(C)c(OCCCN2CCN(c3cccc4sccc34)CC2)c(OC)c1` [Example 17, methyl N-methyl-{4-[3-(4-benzo[b]thiophen-4-yl-piperazin-1-yl)propoxy]-3-methoxy-5-methylphenyl}carbamate hydrochloride], the values for the Ki (in test [1]; at Dopamine D2 receptor) were 3.4 nM and 0.6 nM, respectively.
The corresponding values for `COC(=O)Nc1ccc(OCCCN2CCN(c3cccc4sccc34)CC2)c(F)c1` [Example 363] are 1.1 nM and 2 nM.
On to `CNC(=O)c1cc(OCCCN2CCN(c3cccc4sccc34)CC2)cs1` [Example 76], for which the Ki was 1.7 nM in test [1] and 2.5 nM at Dopamine D2 receptor.
The like results for `CCNC(=O)c1ccc(OCCCN2CCN(c3cccc4sccc34)CC2)nc1` [Example 26] were, in that order, 0.8 nM and 2.6 nM.
Consider `Cn1c(=O)oc2cc(OCCCN3CCN(c4cccc5sccc45)CC3)ccc21` [Example 1016], for which the Ki was 2.3 nM in test [1] and 2.2 nM at Dopamine D2 receptor.
Regarding `O=C1CCc2ccc(OCCCN3CCN(c4cccc5sccc45)CC3)cc21` [Example 125], the values for the Ki (in test [1]; at Dopamine D2 receptor) were 3.9 nM and 2 nM, respectively.
As for `O=C(NCCCn1ccnc1)c1ccc(OCCCN2CCN(c3cccc4sccc34)CC2)cc1` [Example 650], the Ki is 0.6 nM in test [1] and 1.2 nM on Dopamine D2 receptor.
Take `CN(C)CCc1ccc(OCCCN2CCN(c3cccc4sccc34)CC2)cc1` [Example 382]: the results for the Ki (in test [1]; on Dopamine D2 receptor) were 0.6 nM and 0.5 nM, respectively.
The corresponding values for `COc1cc(N2CCN(C(C)=O)CC2)cc(CO)c1OCCCN1CCN(c2cccc3sccc23)CC1` [Example 1084] are 1.4 nM and 0.1 nM.
For the compound `COc1cc(NC=O)cc(C)c1OCCCN1CCN(c2cccc3sccc23)CC1` [Example 354], the values for the Ki (in test [1]; on Dopamine D2 receptor) were 0.6 nM and 0.2 nM, respectively.
Turning to `CCN(CC)CCNC(=O)c1ccc(OCCCN2CCN(c3cccc4sccc34)CC2)cc1` [Example 160], the Ki in test [1] is 0.6 nM; at Dopamine D2 receptor, 0.4 nM.
The like results for `CCNC(=O)c1ccnc(OCCCN2CCN(c3cccc4sccc34)CC2)c1` [Example 32] were, in that order, 1.4 nM and 2.5 nM.
As for `CC(C)N(CCNC(=O)c1ccc(OCCCN2CCN(c3cccc4sccc34)CC2)cc1)C(C)C` [Example 546], the Ki in test [1] was 0.7 nM; on Dopamine D2 receptor, 0.6 nM.
Take `CCS(=O)(=O)Nc1ccc(OCCCN2CCN(c3cccc4sccc34)CC2)cc1` [Example 345]: the figures for the inhibitory constant (Ki) (in test [1]; on Dopamine D2 receptor) were 1.9 nM and 1.6 nM, respectively.
For the compound `O=C1CCCc2ccc(OCCCN3CCN(c4cccc5sccc45)CC3)cc2N1` [Example 1026], the Ki in test [1] is 3.5 nM; on Dopamine D2 receptor, 1.9 nM.
`c1cc(N2CCN(CCCOc3ccc(CN4CCOCC4)cc3)CC2)c2ccsc2c1` [Example 313]: the inhibition constant (Ki) is 1.1 nM in test [1] and 0.7 nM at Dopamine D2 receptor.
`O=C(c1ccc(OCCCN2CCN(c3cccc4sccc34)CC2)cc1)N1CCN(c2ccncc2)CC1` [Example 706]: the Ki in test [1] is 0.9 nM; at Dopamine D2 receptor, 1 nM.
With `CCNC(=O)c1cc(OCCCN2CCN(c3cccc4sccc34)CC2)no1` [Example 72], the Ki (in test [1]; at Dopamine D2 receptor) was 3.4 nM throughout.
Consider `CCN(CC)CCc1ccc(OCCCN2CCN(c3cccc4sccc34)CC2)cc1` [Example 368], for which the inhibitory constant (Ki) is 0.7 nM in test [1] and 0.4 nM at Dopamine D2 receptor.
Consider `Cc1cc(=O)oc2cc(OCCCN3CCN(c4cccc5sccc45)CC3)ccc12` [Example 115], for which the Ki was 3.7 nM in test [1] and 1.6 nM on Dopamine D2 receptor.
As to `O=C1NCc2ccc(OCCCCN3CCN(c4cccc5sccc45)CC3)cc2N1` [Example 146], the Ki in test [1] is 2.4 nM; at Dopamine D2 receptor, 0.1 nM.
As to `COc1cc(N2CCCC2=O)cc(CO)c1OCCCN1CCN(c2cccc3sccc23)CC1` [Example 359], the Ki in test [1] is 1.1 nM; on Dopamine D2 receptor, 0.2 nM.
As for `CCNCc1ccc(OCCCN2CCN(c3cccc4sccc34)CC2)cc1` [Example 286], the Ki was 0.8 nM in test [1] and 0.2 nM on Dopamine D2 receptor.
The like results for `CC1(C)C(=O)Nc2ccc(OCCCN3CCN(c4cccc5sccc45)CC3)cc21` [Example 1014] were, in that order, 4.2 nM and 3.3 nM.
As for `CNC(=O)c1cc(OCCCN2CCN(c3cccc4sccc34)CC2)ncn1` [Example 58], the Ki in test [1] is 4.9 nM; at Dopamine D2 receptor it was 2 nM.
Consider `CN(C)Cc1ccc(OCCCN2CCN(c3cccc4sccc34)CC2)c(Cl)c1` [Example 303], for which the Ki in test [1] is 2.5 nM; on Dopamine D2 receptor it was 1 nM.
`O=C1CCOc2cc(OCCCN3CCN(c4cccc5sccc45)CC3)ccc2N1` [Example 1027]: the results for the Ki (in test [1]; on Dopamine D2 receptor) were 2 nM and 1.9 nM, respectively.
The like results for `CC(=O)Nc1ccc(OCCCN2CCN(c3cccc4sccc34)CC2)cc1` [Example 343] were, in that order, 0.5 nM and 0.9 nM.
